What was measured:
FSHR = molecular target: T1, FSHR (Homo sapiens, UniProt P23945); assay: EC50 of cyclic AMP production in CHO FSHR cells + EC20 FSH (Assay A); assay type: cell-based; details: cyclic AMP production in CHO FSHR cells + EC20 FSH (0.265 pM), HTRF
T1 construct: expressed in transfected cells; host or cells: CHO (Cho-FSHR-LUC-1-1-43)
T1 sequence (P23945 18-695): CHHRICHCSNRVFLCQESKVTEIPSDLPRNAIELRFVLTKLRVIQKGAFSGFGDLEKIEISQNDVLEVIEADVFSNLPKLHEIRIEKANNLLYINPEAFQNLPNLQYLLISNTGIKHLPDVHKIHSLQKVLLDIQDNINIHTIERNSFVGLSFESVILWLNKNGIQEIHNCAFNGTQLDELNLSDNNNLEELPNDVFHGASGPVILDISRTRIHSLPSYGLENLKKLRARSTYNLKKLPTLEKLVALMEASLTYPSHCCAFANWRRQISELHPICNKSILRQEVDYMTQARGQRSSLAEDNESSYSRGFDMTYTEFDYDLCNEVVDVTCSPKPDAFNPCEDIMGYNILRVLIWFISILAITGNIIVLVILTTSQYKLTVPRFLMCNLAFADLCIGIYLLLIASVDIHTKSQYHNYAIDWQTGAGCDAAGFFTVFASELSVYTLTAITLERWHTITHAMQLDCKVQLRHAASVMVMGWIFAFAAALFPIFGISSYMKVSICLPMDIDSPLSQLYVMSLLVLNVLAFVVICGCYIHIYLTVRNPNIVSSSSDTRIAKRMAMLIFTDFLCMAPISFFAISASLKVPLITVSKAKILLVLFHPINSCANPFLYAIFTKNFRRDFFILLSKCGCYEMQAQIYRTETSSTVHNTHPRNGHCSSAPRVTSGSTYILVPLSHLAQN
How it was run: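 CHO cells expressing FSHR, stimulated 1 h at 37° C with compound plus EC20 FSH (0.265 pM final) and 200 μM IBMX. cAMP measured by HTRF (665/620 nm ratio) after 1 h at room temperature; effect expressed relative to maximum response of FSH standard.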

[1] = molecular target: T2, follicle-stimulating hormone (FSH) receptor (Rattus norvegicus, UniProt P20395); assay: Rat granulosa EC50 FSH (Assay B); assay type: cell-based
T2 construct: endogenous in cells; host or cells: rat granulosa cells
T2 sequence (P20395 18-692): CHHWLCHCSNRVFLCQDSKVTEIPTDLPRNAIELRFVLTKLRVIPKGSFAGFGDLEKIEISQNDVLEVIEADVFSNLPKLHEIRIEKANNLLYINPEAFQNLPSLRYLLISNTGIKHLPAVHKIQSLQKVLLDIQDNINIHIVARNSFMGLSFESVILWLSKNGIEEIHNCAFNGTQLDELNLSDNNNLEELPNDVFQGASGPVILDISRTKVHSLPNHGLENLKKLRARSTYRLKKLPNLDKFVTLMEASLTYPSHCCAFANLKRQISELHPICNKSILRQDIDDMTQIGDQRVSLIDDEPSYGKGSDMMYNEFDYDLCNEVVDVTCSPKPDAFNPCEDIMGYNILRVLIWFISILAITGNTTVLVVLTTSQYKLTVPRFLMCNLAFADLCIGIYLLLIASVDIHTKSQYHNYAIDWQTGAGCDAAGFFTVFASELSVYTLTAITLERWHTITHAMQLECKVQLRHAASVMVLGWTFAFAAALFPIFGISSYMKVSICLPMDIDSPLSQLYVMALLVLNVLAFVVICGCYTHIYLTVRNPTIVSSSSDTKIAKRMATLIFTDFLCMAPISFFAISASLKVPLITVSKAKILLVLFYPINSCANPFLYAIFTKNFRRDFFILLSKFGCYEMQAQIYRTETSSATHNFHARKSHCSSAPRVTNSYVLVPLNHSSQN
Method: Example 25. Rat granulosa EC50 FSH (Assay B)
The assay was performed pursuant to the teaching of Yanofsky et al. (2006) Allosteric activation of the follicle-stimulating hormone (FSH) receptor by selective, nonpeptide agonists (JBC 281(19): 13226-13233, which is incorporated by reference in the disclosure of the invention).

SMILES	EC50 (FSHR) [nM]	EC50 [1] [nM]
CCOC(=O)C1CC1c1cc2c(cc1OC)OCc1c(C(=O)N(C)C(C)(C)C)nn(-c3cc(Cl)cc(Cl)c3)c1-2 (stereo not drawn) [Compound 196]	< 10	101 to 500
COc1cc(Cl)cc(-n2nc(C(=O)N(C)C(C)(C)C)c3c2-c2cc(-c4ccn(C)n4)c(OC)cc2OC3)c1 [Compound 32, N-tert-butyl-1-(3-chloro-5-methoxyphenyl)-7-methoxy-N-methyl-8-(1-methyl-1H-pyrazol-3-yl)-1,4-dihydrochromeno[4,3-c]pyrazole-3-carboxamide]	10 to 100	101 to 500
COc1cc2c(cc1-c1cncc(C(N)=O)c1)-c1c(c(C(=O)N(C)C(C)(C)C)nn1-c1cc(Cl)cc(Cl)c1)CO2 [Compound 171]	< 10	< 10
COc1cc2c(cc1-c1cncc(C#N)c1)-c1c(c(C(=O)N(C)C(C)(C)C)nn1-c1cc(Cl)cc(Cl)c1)CO2 [Compound 8, N-tert-butyl-8-(5-cyanopyridin-3-yl)-1-(3,5-dichlorophenyl)-7-methoxy-N-methyl-1,4-dihydrochromeno[4,3-c]pyrazole-3-carboxamide]	< 10	101 to 500
COc1cc2c(cc1-c1ccn(C)n1)-c1c(c(C(=O)N3CC[S+]([O-])CC3(C)C)nn1-c1ccsc1)CO2 (stereo not drawn) [Compound 56, (1-(thiophen-3-yl)-7-methoxy-8-(1-methyl-1H-pyrazol-3-yl)-1,4-dihydrochromeno[4,3-c]pyrazol-3-yl)(S-oxo-3,3-dimethylthiomorpholino)methanone]	10 to 100	101 to 500
COc1cc(C(N)=O)cc(-c2cc3c(cc2OC)OCc2c(C(=O)N(C)C(C)(C)C)nn(-c4cc(Cl)cc(Cl)c4)c2-3)n1 [Compound 115, N-tert-butyl-8-(4-carbamoyl-6-methoxypyridin-2-yl)-1-(3,5-dichlorophenyl)-7-methoxy-N-methyl-1,4-dihydrochromeno[4,3-c]pyrazole-3-carboxamide]	< 10	101 to 500
COc1cc2c(cc1-c1ccccn1)-c1c(c(C(=O)N(C)C(C)(C)C)nn1-c1ccsc1)CO2 [Compound 58, N-tert-butyl-7-methoxy-N-methyl-8-(pyridin-2-yl)-1-(thiophen-3-yl)-1,4-dihydrochromeno[4,3-c]pyrazole-3-carboxamide]	10 to 100	> 500
COc1cc2c(cc1-c1nn(C)cc1C#N)-c1c(c(C(=O)N(C)C(C)(C)C)nn1-c1cc(F)cc(F)c1)CO2 [Compound 149]	< 10	10 to 100
COc1cc2c(cc1C1C=NN=C1C)-c1c(c(C(=O)N(C)C(C)(C)C)nn1-c1cc(Cl)cc(Cl)c1)CO2 (stereo not drawn) [Compound 141]	< 10	10 to 100
COc1cc2c(cc1-c1ccn(C)n1)-c1c(c(C(=O)N3CCOCC3(C)C)nn1-c1cc(F)cc(F)c1)CO2 [Compound 51, (1-(3,5-difluorophenyl)-7-methoxy-8-(1-methyl-1H-pyrazol-3-yl)-1,4-dihydrochromeno[4,3-c]pyrazol-3-yl)(3,3-dimethylmorpholino)methanone]	10 to 100	101 to 500
COc1cc2c(cc1-c1cc(C#N)ccn1)-c1c(c(C(=O)N(C)C(C)(C)C)nn1-c1cc(Cl)cc(Cl)c1)CO2 [Compound 26, N-tert-butyl-8-(4-cyanopyridin-2-yl)-1-(3,5-dichlorophenyl)-7-methoxy-N-methyl-1,4-dihydrochromeno[4,3-c]pyrazole-3-carboxamide]	10 to 100	101 to 500
COc1cc2c(cc1-c1cnn(CCO)c1)-c1c(c(C(=O)N(C)C(C)(C)C)nn1-c1cc(Cl)cc(Cl)c1)CO2 [Compound 1, N-tert-butyl-1-(3,5-dichlorophenyl)-8-(1-(2-hydroxyethyl)-1H-pyrazol-4-yl)-7-methoxy-N-methyl-1,4-dihydrochromeno[4,3-c]pyrazole-3-carboxamide]	< 10	10 to 100
COc1cc2c(cc1-c1cncc(C(N)=O)c1)-c1c(c(C(=O)N(C)C(C)(C)C)nn1-c1cc(F)cc(F)c1)CO2 [Compound 161]	< 10	10 to 100
COc1cc2c(cc1-c1cc(=O)[nH]n1C)-c1c(c(C(=O)N(C)C(C)(C)C)nn1-c1ccsc1)CO2 [Compound 187]	< 10	101 to 500
COc1cc2c(cc1-c1cncc(C(N)=O)c1)-c1c(c(C(=O)N3CCOCC3(C)C)nn1-c1cc(F)cc(F)c1)CO2 [Compound 164]	< 10	< 10
COc1cc2c(cc1-c1c(C)nn(CC(=O)O)c1C)-c1c(c(C(=O)N(C)C(C)(C)C)nn1-c1cc(Cl)cc(Cl)c1)CO2 [Compound 137, 2-(4-(3-(tert-butyl(methyl)carbamoyl)-1-(3,5-dichlorophenyl)-7-methoxy-1,4-dihydrochromeno[4,3-c]pyrazol-8-yl)-3,5-dimethyl-1H-pyrazol-1-yl)acetic acid]	< 10	101 to 500
COc1cc2c(cc1-c1cc(C(N)=O)ncc1F)-c1c(c(C(=O)N3CCOCC3(C)C)nn1-c1cc(F)cc(F)c1)CO2 [Compound 72, 4-(1-(3,5-difluorophenyl)-3-(3,3-dimethylmorpholine-4-carbonyl)-7-methoxy-1,4-dihydrochromeno[4,3-c]pyrazol-8-yl)-5-fluoropicolinamide]	< 10	10 to 100
COc1cc2c(cc1-c1cncc(C(=O)O)c1)-c1c(c(C(=O)N3CCOCC3(C)C)nn1-c1cc(Cl)cc(Cl)c1)CO2 [Compound 178, 5-(1-(3,5-dichlorophenyl)-3-(3,3-dimethylmorpholine-4-carbonyl)-7-methoxy-1,4-dihydrochromeno[4,3-c]pyrazol-8-yl)nicotinic acid]	< 10	< 10
COc1cc2c(cc1-c1nccnc1C#N)-c1c(c(C(=O)N(C)C(C)(C)C)nn1-c1cc(Cl)cc(Cl)c1)CO2 [Compound 112, N-tert-butyl-8-(3-cyanopyrazin-2-yl)-1-(3,5-dichlorophenyl)-7-methoxy-N-methyl-1,4-dihydrochromeno[4,3-c]pyrazole-3-carboxamide]	10 to 100	101 to 500
COc1cc2c(cc1-c1cnn(CC(N)=O)c1)-c1c(c(C(=O)N3CC[S+]([O-])CC3(C)C)nn1-c1cc(F)cc(F)c1)CO2 (stereo not drawn) [Compound 71]	10 to 100	101 to 500
COc1cc(Cl)cc(-n2nc(C(=O)N3CCOCC3(C)C)c3c2-c2cc(-c4cncc(C#N)c4)c(OC)cc2OC3)c1 [Compound 34, 5-(1-(3-chloro-5-methoxyphenyl)-3-(3,3-dimethylmorpholine-4-carbonyl)-7-methoxy-1,4-dihydrochromeno[4,3-c]pyrazol-8-yl)nicotinonitrile]	< 10	10 to 100
COc1cc2c(cc1-c1nn(C)cc1Br)-c1c(c(C(=O)N(C)C(C)(C)C)nn1-c1cc(Cl)cc(Cl)c1)CO2 [Compound 148]	< 10	10 to 100
COc1cc2c(cc1-c1cccnc1F)-c1c(c(C(=O)N3CCOCC3(C)C)nn1-c1ccsc1)CO2 [Compound 61, (3,3-dimethylmorpholino)(8-(2-fluoropyridin-3-yl)-7-methoxy-1-(thiophen-3-yl)-1,4-dihydrochromeno[4,3-c]pyrazol-3-yl)methanone]	< 10	10 to 100
COc1cc2c(cc1-c1ccn(C)n1)-c1c(c(C(=O)N3CCN(C#N)CC3(C)C)nn1-c1ccsc1)CO2 [Compound 184, 4-(7-methoxy-8-(1-methyl-1H-pyrazol-3-yl)-1-(thiophen-3-yl)-1,4-dihydrochromeno[4,3-c]pyrazole-3-carbonyl)-3,3-dimethylpiperazine-1-carbonitrile]	< 10	10 to 100
